In assay [1] the target is T1, α1B-Adrenergic receptor (Rattus norvegicus, UniProt P15823).
T1 construct: gene Adra1b
The assay is described as follows: MDS Pharma Services binding screen at […].

In a further assay the target is T2, Dopamine D2S receptor (Homo sapiens, UniProt P14416).
T2 construct: gene DRD2; D2S
The assay is described as follows: MDS Pharma Services binding screen at […].

Another assay concerns the target T3, Adenosine A1 (Homo sapiens, UniProt P30542).
T3 construct: gene ADORA1
The assay is described as follows: biochemical. On the set-up: MDS Pharma Lead Profiling screen, binding assays, per cent inhibition, duplicate. As for the experimental part:
(§1) The activity of Dimebon against selected set of biochemical targets was performed by MDS Pharma Services . The Dimebon was provided to MDS Pharma as dry powder, dissolved in DMSO and tested in 10 μM concentrations. The standard Lead Profiling + CYP450 screen was performed according to MDS Pharma specifications with additional custom-chosen targets added to the screen as indicated. To further understand potential mechanisms responsible for clinical effects of Dimebon, we evaluated Dimebon against a set of selected biochemical targets. Dimebon evaluation was performed by MDS Pharma Services . The standard Lead Profiling + CYP450 screen was performed with additional custom-selected targets added to the screen. The results of the screen obtained at 10 μM of Dimebon are provided as Additional File 3. […] Low affinity (50–60% inhibition) interactions were also observed for CYP450, 2C19 receptor, voltage-gated L-type Ca^2+ channel, Dopamine D4.2 receptor, and Serotonin 5-HT1 receptor. […] Supplementary file 1750-1326-3-15-S3.pdf: Additional file 3 The results of Dimebon screening against a selected set of biochemical targets. The complete results obtained by MDS Pharma with a selected list of biochemical targets using 10 μM of Dimebon as a probe. The Cat numbers refer to the MDS Pharma Services assay specification. The receptors and species are listed. Dimebon was tested at 10 μM concentratio in duplicate. The % inhibition by Dimebon is shown numerically and graphically for each receptor. Significant targets (defined as % inhibition > 50%) are highlighted in yellow. Click here for file

In the next assay the target is T4, Bradykinin B2 (Homo sapiens, UniProt P30411).
T4 construct: gene BDKRB2
T4 sequence (P30411 whole entry): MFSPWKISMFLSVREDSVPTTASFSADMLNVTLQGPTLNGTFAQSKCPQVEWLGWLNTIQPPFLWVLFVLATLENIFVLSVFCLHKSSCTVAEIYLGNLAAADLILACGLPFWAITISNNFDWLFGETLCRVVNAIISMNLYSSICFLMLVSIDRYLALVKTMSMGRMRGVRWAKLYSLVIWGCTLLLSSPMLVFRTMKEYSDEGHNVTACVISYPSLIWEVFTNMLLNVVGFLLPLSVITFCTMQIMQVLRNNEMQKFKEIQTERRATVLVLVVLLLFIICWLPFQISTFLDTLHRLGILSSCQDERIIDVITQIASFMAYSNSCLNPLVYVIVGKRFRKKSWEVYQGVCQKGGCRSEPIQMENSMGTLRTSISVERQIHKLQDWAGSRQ
The assay is described as follows: biochemical. Further details: MDS Pharma Lead Profiling screen, binding assays, per cent inhibition, duplicate. The protocol:
as §1

In the next assay the target is T5, Dopamine D3 (Homo sapiens, UniProt P35462).
T5 construct: gene DRD3
The assay is described as follows: biochemical. Further details: MDS Pharma Lead Profiling screen, binding assays, per cent inhibition, duplicate. The protocol: as §1

Assay [2] addresses T6, Epidermal Growth Factor (EGF) (Homo sapiens, UniProt P00533).
T6 construct: gene EGFR
The assay is described as follows: biochemical. Further details: MDS Pharma Lead Profiling screen, binding assays, per cent inhibition, duplicate. As for the experimental part: as §1

The next assay addresses T7, GABAB1A (Homo sapiens, UniProt Q9UBS5).
T7 construct: gene GABBR1; isoform 1A
The assay is described as follows: biochemical. Further details: MDS Pharma Lead Profiling screen, binding assays, per cent inhibition, duplicate. As for the experimental part: as §1

Another assay has as its target T8, Histamine H3 (Homo sapiens, UniProt Q9Y5N1).
T8 construct: gene HRH3
The assay is described as follows: biochemical. On the set-up: MDS Pharma Lead Profiling screen, binding assays, per cent inhibition, duplicate. As for the experimental part:
as §1

The next assay concerns the target T9, Muscarinic M1 (Homo sapiens, UniProt P11229).
T9 construct: gene CHRM1
The assay is described as follows: biochemical. On the set-up: MDS Pharma Lead Profiling screen, binding assays, per cent inhibition, duplicate. As for the experimental part:
as §1

The next assay has as its target T10, Muscarinic M2 (Homo sapiens, UniProt P08172).
T10 construct: gene CHRM2
The assay is described as follows: biochemical. On the set-up: MDS Pharma Lead Profiling screen, binding assays, per cent inhibition, duplicate. As for the experimental part:
as §1

In another assay the target is T11, Muscarinic M3 (Homo sapiens, UniProt P20309).
T11 construct: gene CHRM3
T11 sequence (P20309 whole entry): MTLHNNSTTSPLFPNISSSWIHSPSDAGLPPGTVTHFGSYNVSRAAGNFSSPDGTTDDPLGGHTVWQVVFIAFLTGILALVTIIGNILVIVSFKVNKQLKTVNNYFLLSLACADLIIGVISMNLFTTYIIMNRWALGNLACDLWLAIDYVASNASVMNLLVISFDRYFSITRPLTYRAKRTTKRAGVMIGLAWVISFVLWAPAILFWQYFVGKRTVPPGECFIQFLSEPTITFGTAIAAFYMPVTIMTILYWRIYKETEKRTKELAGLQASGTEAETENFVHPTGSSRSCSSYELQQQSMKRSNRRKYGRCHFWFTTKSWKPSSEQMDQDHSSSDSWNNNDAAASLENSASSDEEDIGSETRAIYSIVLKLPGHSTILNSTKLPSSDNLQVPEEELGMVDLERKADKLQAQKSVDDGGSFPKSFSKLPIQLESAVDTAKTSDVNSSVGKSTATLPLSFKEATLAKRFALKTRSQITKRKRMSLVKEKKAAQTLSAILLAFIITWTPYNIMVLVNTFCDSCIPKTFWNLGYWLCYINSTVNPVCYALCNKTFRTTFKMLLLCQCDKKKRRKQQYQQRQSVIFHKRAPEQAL
The assay is described as follows: biochemical. Further details: MDS Pharma Lead Profiling screen, binding assays, per cent inhibition, duplicate. As for the experimental part:
as §1

The target in a further assay is T12, Opiate kappa (OP2, KOP) (Homo sapiens, UniProt P41145).
T12 construct: gene OPRK1
T12 sequence (P41145 whole entry): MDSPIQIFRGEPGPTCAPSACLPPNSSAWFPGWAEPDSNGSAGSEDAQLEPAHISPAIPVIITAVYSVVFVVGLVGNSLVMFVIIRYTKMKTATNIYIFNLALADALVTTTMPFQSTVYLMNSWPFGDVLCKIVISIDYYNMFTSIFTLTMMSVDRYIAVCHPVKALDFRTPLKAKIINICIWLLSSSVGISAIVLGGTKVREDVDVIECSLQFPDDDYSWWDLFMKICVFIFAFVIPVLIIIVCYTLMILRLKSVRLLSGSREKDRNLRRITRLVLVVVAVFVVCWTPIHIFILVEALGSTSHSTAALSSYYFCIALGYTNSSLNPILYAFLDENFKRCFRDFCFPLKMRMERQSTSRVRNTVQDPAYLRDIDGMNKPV
The assay is described as follows: biochemical. Further details: MDS Pharma Lead Profiling screen, binding assays, per cent inhibition, duplicate. As for the experimental part:
as §1

A further assay concerns the target T13, Opiate mu (OP3, MOP) (Homo sapiens, UniProt P35372).
T13 construct: gene OPRM1
The assay is described as follows: biochemical. Further details: MDS Pharma Lead Profiling screen, binding assays, per cent inhibition, duplicate. The protocol: as §1

For another assay, the target named is T14, Prostanoid EP4 (Homo sapiens, UniProt P35408).
T14 construct: gene PTGER4
The assay is described as follows: biochemical. Further details: MDS Pharma Lead Profiling screen, binding assays, per cent inhibition, duplicate. As for the experimental part: as §1

For assay [3], the target named is T15, Serotonin 5-HT2c receptor (Homo sapiens, UniProt P28335).
T15 construct: gene HTR2C
T15 sequence (P28335 33-458): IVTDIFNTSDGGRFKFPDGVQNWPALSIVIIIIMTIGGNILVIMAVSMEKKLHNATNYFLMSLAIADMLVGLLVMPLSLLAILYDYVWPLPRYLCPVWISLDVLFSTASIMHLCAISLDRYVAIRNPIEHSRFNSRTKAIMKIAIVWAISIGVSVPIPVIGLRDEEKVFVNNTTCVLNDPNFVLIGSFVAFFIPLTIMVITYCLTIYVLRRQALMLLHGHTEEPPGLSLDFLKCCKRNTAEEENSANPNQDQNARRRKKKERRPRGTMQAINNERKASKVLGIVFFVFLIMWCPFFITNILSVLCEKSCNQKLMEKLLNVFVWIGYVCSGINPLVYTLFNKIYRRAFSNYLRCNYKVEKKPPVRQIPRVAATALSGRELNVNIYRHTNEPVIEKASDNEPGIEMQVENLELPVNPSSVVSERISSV
The assay is described as follows: biochemical. Further details: MDS Pharma Lead Profiling screen, binding assays, per cent inhibition, duplicate. As for the experimental part: as §1

The next assay concerns the target T16, α1A-Adrenergic receptor (Rattus norvegicus, UniProt P43140).
T16 construct: gene Adra1a
The assay is described as follows: biochemical. Further details: MDS Pharma Lead Profiling screen, binding assays, per cent inhibition, duplicate. The protocol:
as §1

Assay [4] concerns the target T1, α1B-Adrenergic receptor. The assay is described as follows: biochemical. On the set-up: MDS Pharma Lead Profiling screen, binding assays, per cent inhibition, duplicate. The protocol: as §1
The next assay has as its target T17, α1D-Adrenergic receptor (Homo sapiens, UniProt P25100).
T17 construct: gene ADRA1D
The assay is described as follows: biochemical. On the set-up: MDS Pharma Lead Profiling screen, binding assays, per cent inhibition, duplicate. As for the experimental part: as §1

Another assay addresses T18, Monoamine Oxidase MAO-A (Homo sapiens, UniProt P21397).
T18 construct: gene MAOA
The assay is described as follows: biochemical. Further details: MDS Pharma Lead Profiling + CYP450 screen, enzyme assays, per cent inhibition, duplicate. The protocol:
as §1

The next assay concerns the target T19, Monoamine Oxidase MAO-B (Homo sapiens, UniProt P27338).
T19 construct: gene MAOB
The assay is described as follows: biochemical. Further details: MDS Pharma Lead Profiling + CYP450 screen, enzyme assays, per cent inhibition, duplicate. As for the experimental part:
as §1

Assay [5] has as its target Peptidase, BACE1 (beta-Secretase) (Homo sapiens, UniProt P56817). The assay is described as follows: biochemical. On the set-up: MDS Pharma Lead Profiling + CYP450 screen, enzyme assays, per cent inhibition, duplicate. The protocol:
as §1

Structures are written as SMILES.

T1 sequence (P15823 whole entry): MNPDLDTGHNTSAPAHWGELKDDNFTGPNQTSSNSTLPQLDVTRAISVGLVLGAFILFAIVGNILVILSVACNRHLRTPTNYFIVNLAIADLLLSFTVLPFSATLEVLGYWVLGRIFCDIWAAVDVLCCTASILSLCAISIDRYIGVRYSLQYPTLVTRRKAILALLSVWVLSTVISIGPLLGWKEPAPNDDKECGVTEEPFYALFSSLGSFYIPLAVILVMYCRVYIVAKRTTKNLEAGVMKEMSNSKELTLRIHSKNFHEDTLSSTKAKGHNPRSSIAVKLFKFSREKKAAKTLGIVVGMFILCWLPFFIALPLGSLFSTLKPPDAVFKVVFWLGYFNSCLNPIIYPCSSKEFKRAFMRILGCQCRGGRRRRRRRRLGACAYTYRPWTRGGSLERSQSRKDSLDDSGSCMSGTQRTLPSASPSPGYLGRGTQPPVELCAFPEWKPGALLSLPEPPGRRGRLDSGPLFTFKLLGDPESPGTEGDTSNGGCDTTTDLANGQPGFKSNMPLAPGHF
T18 sequence (P21397 whole entry): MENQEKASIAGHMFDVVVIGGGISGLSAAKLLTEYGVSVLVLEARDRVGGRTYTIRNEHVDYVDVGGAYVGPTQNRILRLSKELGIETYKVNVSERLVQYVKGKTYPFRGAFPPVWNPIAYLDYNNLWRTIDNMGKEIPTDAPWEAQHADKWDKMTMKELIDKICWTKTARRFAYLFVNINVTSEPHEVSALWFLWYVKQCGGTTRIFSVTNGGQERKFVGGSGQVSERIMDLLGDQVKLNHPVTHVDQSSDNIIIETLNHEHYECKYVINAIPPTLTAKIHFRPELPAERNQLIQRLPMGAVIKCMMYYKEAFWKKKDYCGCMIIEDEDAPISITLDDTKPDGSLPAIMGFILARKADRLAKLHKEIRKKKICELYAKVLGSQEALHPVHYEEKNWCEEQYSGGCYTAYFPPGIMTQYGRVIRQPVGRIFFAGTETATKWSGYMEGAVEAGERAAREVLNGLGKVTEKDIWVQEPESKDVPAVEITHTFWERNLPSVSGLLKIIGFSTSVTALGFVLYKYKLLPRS
T2 sequence (P14416 other isoform, or with tags, fused parts or gaps): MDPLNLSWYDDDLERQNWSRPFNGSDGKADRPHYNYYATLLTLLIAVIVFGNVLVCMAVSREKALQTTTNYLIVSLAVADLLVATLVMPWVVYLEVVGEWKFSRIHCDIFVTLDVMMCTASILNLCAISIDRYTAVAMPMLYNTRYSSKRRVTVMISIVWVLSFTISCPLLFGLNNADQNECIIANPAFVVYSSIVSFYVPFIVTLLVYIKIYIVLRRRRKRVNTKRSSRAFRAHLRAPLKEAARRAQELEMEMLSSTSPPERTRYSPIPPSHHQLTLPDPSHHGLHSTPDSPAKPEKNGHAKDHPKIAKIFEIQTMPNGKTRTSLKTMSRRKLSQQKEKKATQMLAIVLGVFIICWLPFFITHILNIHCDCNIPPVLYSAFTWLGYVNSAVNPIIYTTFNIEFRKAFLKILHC
T19 sequence (P27338 whole entry): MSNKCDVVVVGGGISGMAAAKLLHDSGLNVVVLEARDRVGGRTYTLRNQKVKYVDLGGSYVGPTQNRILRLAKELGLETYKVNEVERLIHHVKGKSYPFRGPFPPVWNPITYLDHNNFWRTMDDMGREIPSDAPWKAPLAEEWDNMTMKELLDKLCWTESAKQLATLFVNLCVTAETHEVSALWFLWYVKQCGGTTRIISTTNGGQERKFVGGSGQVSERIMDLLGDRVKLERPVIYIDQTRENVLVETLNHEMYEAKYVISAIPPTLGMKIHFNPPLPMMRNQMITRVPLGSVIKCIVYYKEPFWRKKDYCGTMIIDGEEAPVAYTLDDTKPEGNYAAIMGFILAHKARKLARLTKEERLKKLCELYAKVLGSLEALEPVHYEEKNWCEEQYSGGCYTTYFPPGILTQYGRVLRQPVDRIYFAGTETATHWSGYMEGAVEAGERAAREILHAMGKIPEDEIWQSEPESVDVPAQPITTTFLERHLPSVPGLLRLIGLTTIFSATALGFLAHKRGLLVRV
T17 sequence (P25100 whole entry): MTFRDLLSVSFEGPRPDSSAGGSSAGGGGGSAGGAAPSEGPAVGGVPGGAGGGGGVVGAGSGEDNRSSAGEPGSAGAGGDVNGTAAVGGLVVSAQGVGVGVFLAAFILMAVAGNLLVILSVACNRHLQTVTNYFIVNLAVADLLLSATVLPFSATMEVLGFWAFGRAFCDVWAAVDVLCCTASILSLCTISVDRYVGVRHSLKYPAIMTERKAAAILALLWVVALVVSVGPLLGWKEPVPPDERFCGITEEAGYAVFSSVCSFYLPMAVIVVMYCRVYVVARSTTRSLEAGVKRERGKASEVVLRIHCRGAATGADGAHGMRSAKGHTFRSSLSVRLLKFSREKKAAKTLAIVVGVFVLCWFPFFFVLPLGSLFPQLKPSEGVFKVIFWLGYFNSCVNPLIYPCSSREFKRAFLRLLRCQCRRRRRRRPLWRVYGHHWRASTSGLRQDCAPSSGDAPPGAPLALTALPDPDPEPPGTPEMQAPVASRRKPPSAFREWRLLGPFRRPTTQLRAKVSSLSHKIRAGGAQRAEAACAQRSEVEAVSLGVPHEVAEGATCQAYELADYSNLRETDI
Chain of Peptidase, BACE1 (beta-Secretase) (P56817 whole entry): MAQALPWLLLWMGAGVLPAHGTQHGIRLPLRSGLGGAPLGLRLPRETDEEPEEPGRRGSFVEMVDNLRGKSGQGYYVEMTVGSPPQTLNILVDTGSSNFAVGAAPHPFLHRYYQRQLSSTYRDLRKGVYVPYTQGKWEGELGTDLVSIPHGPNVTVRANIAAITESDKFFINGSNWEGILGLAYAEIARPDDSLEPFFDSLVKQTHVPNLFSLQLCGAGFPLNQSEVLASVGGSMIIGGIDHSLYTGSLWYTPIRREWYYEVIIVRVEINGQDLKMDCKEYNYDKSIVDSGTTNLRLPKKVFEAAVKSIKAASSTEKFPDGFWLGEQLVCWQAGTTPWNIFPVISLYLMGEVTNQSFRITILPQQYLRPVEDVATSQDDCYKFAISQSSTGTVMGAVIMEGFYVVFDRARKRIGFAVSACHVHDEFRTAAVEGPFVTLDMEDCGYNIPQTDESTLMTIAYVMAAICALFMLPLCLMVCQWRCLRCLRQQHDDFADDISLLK

Broadly, the inhibition is the relative decrease from the control value, in per cent. As to `Cc1ccc2c(c1)c1c(n2CCc2ccc(C)nc2)CCN(C)C1` [Dimebon, 2,3,4,5-Tetrahydro-2,8-dimethyl-5-(2-(6-methyl-3-pyridyl)ethyl)-1H-pyrido(4,3-b)indole], the inhibition at 10 µM on α1B-Adrenergic receptor [1] was above 90%; at Dopamine D2S receptor it was 70 to 80%; on Adenosine A1, 0%; on Bradykinin B2, -2%; at Dopamine D3, 73%; in [2] it was 1%. For the same compound, the inhibition at 10 µM on GABAB1A was -10%; at Histamine H3 it was -4%; at Muscarinic M1, 9%; at Muscarinic M2, 8%; at Muscarinic M3 it was 7%; on Opiate kappa (OP2, KOP), 16%. Also, the inhibition at 10 µM at Opiate mu (OP3, MOP) was found to be 10%; at Prostanoid EP4 it was 1%; in assay [3] it was 95%; on α1A-Adrenergic receptor it was 96%; at α1B-Adrenergic receptor [4], 100%; on α1D-Adrenergic receptor it was 95%. The inhibition at 10 µM on Monoamine Oxidase MAO-A was 6%; at Monoamine Oxidase MAO-B it was 5%; in assay [5] it was -9%.

The values above are taken from publication PMC2577671, “Evaluation of Dimebon in cellular model of Huntington's disease” (Molecular Neurodegeneration, 2008).
